In patent US4377687A, “Analogs of 1-(2-chloroethyl)-1-nitroso-3-(cycloheyl)-urea substituted by heterocyclic rings or alkyl radicals” (Stiftung Deutsches Krebsforschungszentrum, priority 1978, dated 1983):
Where “and” joins values, the source holds several entries; their conditions need not be identical. Equal entries are not always repeated. Where two headings read alike, the source gives them in different places.

How the values were obtained:
[1] = Mean animal weight / weight gain after tumor transplantation; format: in vivo, rat (Sprague-Dawley rats); details: CP 70 (exp. 1-3), BCNU 25, MeCCNU 45 (exp. 1), picolyl-3-CNU 25, its HCl 25 (exp. 2), morpholino-CNU 28, piperidino-CNU 15 (exp. 3), dimethylmorpholino-CNU 45 mg/kg (exp. 4); for Mean animal weight on day 50: day 50 after tumor transplantation; for Mean animal weight on day 100: day 100 after tumor transplantation
Experimental: (§1) Male Sprague-Dawley rats were used in the experiments. Yoshida sarcome in ascites form was maintained in the same strain of rats by serial intraperitoneal injection of 0,5 ml of ascites fluid.
(§2) 3×10^6 cells were injected into the colon wall in a manner known per se. The chemotherapeutic treatment was carried out on the eighth day after implantation of the tumor cells.
(§3) Water-insoluble compounds were dissolved in Cremophor EL/ethanol/physiological saline (20:20:60: vol.%). Water-soluble substances were dissolved in physiological saline. Cremophor EL is a surfactant on the basis of polyethoxylated castor oil. All test compounds were administered introperitoneally. The nitrosoureas were applied at approximately equitoxic doses corresponding to about 80% of the acute LD50 values observed in healthy rats of the same strain over a 28-day observation period.
In all treated animals and at all doses tested the mean weight gain was lower than in the controls. Table 3 gives the mean animal weights measured 50 and 100 days after tumor transplantation in experiments 1 to 5.

[2] = test system: Yoshida sarcoma; format: in vivo, rat (male Sprague-Dawley rats); details: for tumor-free animals at the end of the experiment (in words) / increase in tumor-free animals (cures) above controls: 120 days; for increase in tumor-free animals (cures) above controls / p for improvement of survival time / life expectancy: CP (exp. 1-3); for increase in tumor-free animals (cures) above controls: BCNU, MeCCNU 45, dimethylmorpholine-CNU 45, piperidino-CNU 15, picolyl-3-CNU.HCl 25 mg/kg; for p for improvement of survival time / life expectancy: compared with controls, dimethylmorpholine-CNU 45 mg/kg; for effect on survival time / life expectancy (in words): experiments 1-4, MeCCNU 45, morpholino-CNU 28 (exp. 3 and 5), dimethylmorpholine-CNU 45, piperidino-CNU 15, picolyl-3-CNU 25, picolyl-3-CNU.HCl 25 mg/kg; for chemotherapeutic activity against Yoshida sarcoma in the colon wall (in words): i.p.
Experimental: The chemotherapeutic activity of nitrosoureas was compared in antitumor tests using Yoshida sarcoma ascited cells implanted into the wall of the descending colon in Sprague-Dawley rats.
as §1, §2, §3
(§4) Each experiment involved an untreated control group and a varying number of treated groups. Individual survival times were counted as days after tumor inoculation. At the time of death a record of whether an animal was tumor-free or not was made. All animals alive 120 days after tumor inoculation were killed. Animals that according to macroscopic examination had no tumor at the end of the experiment were considered as cured. Since in a number of control rats also no tumors occurred after 120 days the differences in cures between controls and treated animals rather than absolute numbers are reported. Differences in survival were evaluated statistically by individual comparisons between treated rats and controls using a nonparametric log-rank test (Kalbfleisch and Prentice, The statistical analysis of failure time data, Wiley, New York, 1979). Numerical evaluation was performed using a computerized system.

[3] = Toxicity in treated tumor-bearing rats (Yoshida sarcoma experiments); format: in vivo, rat (Sprague-Dawley rats)
Experimental: as §1, §2, §3, §4

[4] = test system: Yoshida sarcoma; details: previous experiments; i.p.; cited from earlier work
[5] = test system: Yoshida sarcoma; format: in vivo, rat (male Sprague-Dawley rats); details: i.p.
[6] = Water solubility
[7] = Experiment 1, CP 70, BCNU 25, MeCCNU 45 mg/kg
[8] = Experiment 1, CP 70, BCNU 25, MeCCNU 45 mg/kg, initial animals CP 30, BCNU 30, MeCCNU 29
[9] = Experiment 1, i.p. day 8, CP 70, BCNU 25, MeCCNU 45 mg/kg
[10] = Experiment 4, 45 mg/kg, 30 initial animals
[11] = Experiment 2, CP 70, picolyl-3-CNU 25, picolyl-3-CNU.HCl 25 mg/kg
[12] = Experiment 2, CP 70, picolyl-3-CNU 25, picolyl-3-CNU.HCl 25 mg/kg, 30 initial animals each
[13] = Experiment 3, CP 70, morpholino-CNU 28, piperidino-CNU 15 mg/kg
[14] = Experiment 3, CP 70, morpholino-CNU 28, piperidino-CNU 15 mg/kg, 30 initial animals each
[15] = Experiment 5, CP 70, picolyl-3-CNU.HCl 25, morpholino-CNU 28, piperidino-CNU 15 mg/kg
[16] = Experiment 5, CP 70, picolyl-3-CNU.HCl 25, morpholino-CNU 28, piperidino-CNU 15 mg/kg, 15 initial animals (picolyl-3-CNU.HCl 14)
[17] = Experiment 5, CP 70, piperidino-CNU 15 mg/kg

CC1CCC(NC(=O)N(CCCl)N=O)CC1 (centres unmarked) [MeCCNU, 1-(2-chloroethyl)-3-(4-methylcyclohexyl)-1-nitrosourea]
Mean animal weight on day 50 [1]: 280 g | Mean animal weight on day 100 [1]: 300 g | tumor-free animals at the end of the experiment (in words) [2]: increased the rate of tumor-free animals alive at the end of the experiment | increase in tumor-free animals (cures) above controls [2]: 8% | D1-120 = difference (%) between tf1-120 of treated and untreated animals [2, 7]: 27% | D120 = difference (%) between tf120 of treated and untreated animals [2, 7]: 8% | tf1-120 (%) (tf120 + animals dying of toxicity) [2, 7]: 52% | tf120 (%) (animals surviving day 120 without tumor) [2, 7]: 33% | tf1-120, No. (tf120 + animals dying of toxicity) [2, 8]: 15 | tf120, No. (animals surviving day 120 without tumor) [2, 8]: 10 | % M (median survival time, untreated control = 100) [2, 9]: 130% | M = median survival time [2, 9]: 60 days | toxicity (in words) ([3]; at the doses tested): obviously toxic | mortality at 2880 h ([3]; rat, in vivo, ip, 45 mg/kg, read-out: animals died without a tumor before day 120): 19% | activity against Yoshida sarcoma, shown previously (in words) [4]: active

CC1CN(NC(=O)N(CCCl)N=O)CC(C)O1 (centres unmarked) [Dimethylmorpholino-CNU]
Mean animal weight on day 50 [1]: 250 g | Mean animal weight on day 100 [1]: 250 g | tumor-free animals at the end of the experiment (in words) [2]: remarkable increase in tumor-free animals | increase in tumor-free animals (cures) above controls [2]: 20% | % M (median survival time, untreated control = 100) ([2]; Experiment 4, 45 mg/kg): 374% | D1-120 = difference (%) between tf1-120 of treated and untreated animals ([2]; Experiment 4, 45 mg/kg): 27% | D120 = difference (%) between tf120 of treated and untreated animals ([2]; Experiment 4, 45 mg/kg): 20% | tf1-120 (%) (tf120 + animals dying of toxicity) ([2]; Experiment 4, 45 mg/kg): 47% | tf120 (%) (animals surviving day 120 without tumor) ([2]; Experiment 4, 45 mg/kg): 40% | tf1-120, No. (tf120 + animals dying of toxicity) [2, 10]: 14 | tf120, No. (animals surviving day 120 without tumor) [2, 10]: 12 | M = median survival time ([2]; Experiment 4, i.p. day 8, 45 mg/kg): 71 days | p for improvement of survival time / life expectancy [2]: < 0,05 | effect on survival time / life expectancy (in words) ([2]; listed as Dimethylmorpholine-CNU): significantly improved the life expectancy | effect on survival time / life expectancy (in words) ([2]; listed as dimethylmorpholino-CNU): significant increase in survival time | chemotherapeutic activity against Yoshida sarcoma in the colon wall (in words) [2]: active | concentration reached in the distal colon (in words) [5]: reached the distal colon at chemotherapeutically effective concentrations | water solubility (in words) [6]: water-soluble

O=P1(N(CCCl)CCCl)NCCCO1 (stereo not drawn) [CP, 2-bis-(β-chloroethyl)-amino-oxo-2-oxa-2-λ^5-phospha-3-aza-cyclohexane]
Mean animal weight on day 50 [1]: 300 to 330 g | Mean animal weight on day 100 [1]: 300 to 370 g | D1-120 = difference (%) between tf1-120 of treated and untreated animals [2, 7]: 38% | D120 = difference (%) between tf120 of treated and untreated animals [2, 7]: 25% | tf1-120 (%) (tf120 + animals dying of toxicity) [2, 7]: 63% | tf120 (%) (animals surviving day 120 without tumor) [2, 7]: 50% | tf1-120, No. (tf120 + animals dying of toxicity) [2, 8]: 21 | tf120, No. (animals surviving day 120 without tumor) [2, 8]: 15 | % M (median survival time, untreated control = 100) [2, 9]: > 260% | M = median survival time [2, 9]: > 120 days | % M (median survival time, untreated control = 100) [2, 11]: > 545% | D1-120 = difference (%) between tf1-120 of treated and untreated animals [2, 11]: 58% | D120 = difference (%) between tf120 of treated and untreated animals [2, 11]: 35% | tf1-120 (%) (tf120 + animals dying of toxicity) [2, 11]: 80% | tf120 (%) (animals surviving day 120 without tumor) [2, 11]: 57% | tf1-120, No. (tf120 + animals dying of toxicity) [2, 12]: 24 | tf120, No. (animals surviving day 120 without tumor) [2, 12]: 17 | M = median survival time ([2]; Experiment 2, i.p. day 8, CP 70, picolyl-3-CNU 25, picolyl-3-CNU.HCl 25 mg/kg): > 120 days | % M (median survival time, untreated control = 100) [2, 13]: > 686% | D1-120 = difference (%) between tf1-120 of treated and untreated animals [2, 13]: 48% | D120 = difference (%) between tf120 of treated and untreated animals [2, 13]: 38% | tf1-120 (%) (tf120 + animals dying of toxicity) [2, 13]: 77% | tf120 (%) (animals surviving day 120 without tumor) [2, 13]: 67% | tf1-120, No. (tf120 + animals dying of toxicity) [2, 14]: 23 | tf120, No. (animals surviving day 120 without tumor) [2, 14]: 20 | M = median survival time ([2]; Experiment 3, i.p. day 8, CP 70, morpholino-CNU 28, piperidino-CNU 15 mg/kg): > 120 days | % M (median survival time, untreated control = 100) [2, 15]: 400% | D1-120 = difference (%) between tf1-120 of treated and untreated animals [2, 15]: 7% | D120 = difference (%) between tf120 of treated and untreated animals [2, 15]: 7% | tf1-120, No. (tf120 + animals dying of toxicity) [2, 16]: 1 | tf120, No. (animals surviving day 120 without tumor) [2, 16]: 1 | tf120, No. (animals surviving day 120 without tumor) ([2]; Experiment 5, CP 70, picolyl-3-CNU.HCl 25, morpholino-CNU 28, piperidino-CNU 15 mg/kg, 15 initial animals (picolyl-3-CNU.HCl 14), listed as cyclophosphamide): 1/15 | tf1-120 (%) (tf120 + animals dying of toxicity) [2, 17]: 7% | tf120 (%) (animals surviving day 120 without tumor) [2, 17]: 7% | M = median survival time ([2]; Experiment 5, i.p. day 8, CP 70, picolyl-3-CNU.HCl 25, morpholino-CNU 28, piperidino-CNU 15 mg/kg): 40 days | rate of tumor-free animals treated with cyclophosphamide in the other experiments ([2]; after 120 days, experiments other than experiment 5, listed as cyclophosphamide): 50% and 57% and 67% | p for improvement of survival time / life expectancy [2]: < 0,05 | effect on survival time / life expectancy (in words) [2]: improved significantly | chemotherapeutic activity against Yoshida sarcoma in the colon wall (in words) [2]: most active compound | activity against Yoshida sarcoma, shown previously (in words) [4]: responds favorably

O=NN(CCCl)C(=O)NCCCl [BCNU, 1,3-bis-(2-chloroethyl)-1-nitrosourea]
Mean animal weight on day 50 [1]: 270 g | Mean animal weight on day 100 [1]: 300 g | tumor-free animals at the end of the experiment (in words) [2]: increased the rate of tumor-free animals alive at the end of the experiment | increase in tumor-free animals (cures) above controls [2]: 18% | D1-120 = difference (%) between tf1-120 of treated and untreated animals [2, 7]: 22% | D120 = difference (%) between tf120 of treated and untreated animals [2, 7]: 18% | tf1-120 (%) (tf120 + animals dying of toxicity) [2, 7]: 47% | tf120 (%) (animals surviving day 120 without tumor) [2, 7]: 43% | tf1-120, No. (tf120 + animals dying of toxicity) [2, 8]: 14 | tf120, No. (animals surviving day 120 without tumor) [2, 8]: 13 | % M (median survival time, untreated control = 100) [2, 9]: 160% | M = median survival time [2, 9]: 74 days | activity against Yoshida sarcoma, shown previously (in words) [4]: active
